This is an account of results in publication PMC12348882, “Rational Design, Synthesis and In Vitro Activity of Diastereomeric Cis-/Trans-3-Substituted-3,4-Dihydroisocoumarin-4-Carboxylic Acids as Potential Carnitine Acetyltransferase Inhibitors” (Molecules, 2025).

Usually inhibition stands for the change of the read-out against control, counted positive when it falls. One may read the Ki as a dissociation constant, usually derived from enzyme kinetics or from competition with a known ligand. A high value points to a looser hold on the target.

For assay [1], the target named is T1, carnitine acetyltransferase (CAT) (Columba livia, UniProt P52826).
T1 construct: an enzyme isolated from pigeon breast muscle (Sigma Aldrich) was used in the form of an ammonium sulfate suspension; tissue Sigma-Aldrich; host or cells: pigeon breast muscle
T1 sequence (P52826 31-627): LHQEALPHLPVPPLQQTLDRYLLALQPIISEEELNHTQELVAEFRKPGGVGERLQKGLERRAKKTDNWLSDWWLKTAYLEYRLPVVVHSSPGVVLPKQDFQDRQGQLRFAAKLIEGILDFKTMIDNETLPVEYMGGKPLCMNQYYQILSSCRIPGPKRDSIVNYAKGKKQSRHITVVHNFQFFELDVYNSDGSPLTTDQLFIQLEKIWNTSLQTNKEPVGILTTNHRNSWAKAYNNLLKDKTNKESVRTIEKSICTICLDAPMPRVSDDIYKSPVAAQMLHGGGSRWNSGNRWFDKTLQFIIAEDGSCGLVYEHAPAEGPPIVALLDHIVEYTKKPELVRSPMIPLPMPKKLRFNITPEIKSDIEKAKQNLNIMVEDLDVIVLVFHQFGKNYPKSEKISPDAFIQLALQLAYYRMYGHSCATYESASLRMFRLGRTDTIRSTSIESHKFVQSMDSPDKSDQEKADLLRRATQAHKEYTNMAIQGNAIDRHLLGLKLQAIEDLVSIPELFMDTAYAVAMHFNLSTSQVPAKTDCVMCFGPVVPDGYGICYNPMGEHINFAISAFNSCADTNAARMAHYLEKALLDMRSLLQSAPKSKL
As to the kind of experiment: Initial screening of CAT inhibition, spectrophotometric kinetic method with Ellman's reagent. The assay is classed as biochemical. The settings on record: read in first minute of reaction; for inhibition at 100 µM: read-out: CAT inhibition (%), inhibitor 100 μM; for inhibition at 250 µM: read-out: CAT inhibition (%), inhibitor 250 μM; for inhibition at 1000 µM: read-out: CAT inhibition (%), inhibitor 1000 μM. The method, then:
To assess the inhibitory potential of the synthesized compounds against CAT, we conducted an initial screening at three concentrations: 100 μM, 250 μM and 1000 μM. Readings were taken within the first minute after the reaction started, and inhibition was measured using a kinetic method, as described in the Experimental section. The results are summarized and presented as a percentage of inhibition in Figure 2 and Figure 3 for the 3-alkyl-3,4-dihydroisocoumarin-4-carboxylic acids and the 3-alkyl/3-aryl-6,7-dimethoxy-3,4-dihydroisocoumarin-4-carboxylic acids, respectively.
To determine the effect of the synthesized compounds on CAT activity, a modified procedure for spectrophotometric determination of L-carnitine using Ellman’s reagent was used. In all analyses, an enzyme isolated from pigeon breast muscle (Sigma Aldrich) was used in the form of an ammonium sulfate suspension with an activity of 71 U/mg protein. One unit of enzyme catalyzes the conversion of 1 μmol of L-carnitine and acetyl-CoA into acetylcarnitine and free CoA in 1 min. Phosphate buffer (0.5 M, pH = 7.6) is used to dilute the enzyme to obtain a stock solution with a concentration of 24 U/mL.
Ellman’s reagent was prepared immediately before each measurement by dissolving 25 mg DTNB in 5 mL 1 mM solution of Na2EDTA in phosphate buffer (0.5 M, pH = 7.6). Stock solutions of acetyl-CoA and L-carnitine were prepared in deionized water with concentrations of 348.0 μM and 303.4, respectively. An aqueous solution of tris (hydroxymethyl) aminomethane (TRIS) with pH = 7.6 and 1 M concentration was used as a buffer solution. Test compounds were dissolved and diluted in phosphate buffer (0.5 M, pH = 7.6) to the desired stock concentration. The working volume of the reaction is 300 μL and contains 50 μL of each of the six components (DTNB, TRIS, acetyl-CoA, CAT, L-carnitine and inhibitor) solutions with concentrations as described below. In the control samples, the inhibitor solution is replaced with phosphate buffer (0.5 M, pH = 7.6). The incubation time for all components without L-carnitine is 5 min at 37 °C. The reaction was started by adding L-carnitine, and its progress was monitored by reading the change in absorbance at 405 nm in kinetic mode. The concentrations of the components in the final volume were, c (DTNB) = 114 μM, c (TRIS) = 100 mM, c (acetyl-CoA) = 58 μM, c (CAT) = 4 U/mL and c (L-carnitine) = 50.56 μM. The time for reading the results was the first minute after starting the reaction.
For orientation: DTNB colorimetry detects thiols as they appear.

Assay [2] has as its target T1, carnitine acetyltransferase (CAT). As to the kind of experiment: Kinetic studies of CAT inhibition mechanism (Michaelis-Menten / Lineweaver-Burk, SigmaPlot regression). The assay is classed as biochemical, pigeon. The following applies: for Type / mechanism of inhibition: model chosen by R^2, AIC and Sy,x. An excerpt: These experiments allowed us to identify the inhibition mechanism and calculate Km, Vmax and Ki. We used SigmaPlot version 12.5 (Systat Software Inc., San Jose, CA, USA), which includes modules for regression analysis and various inhibition models. This software also lets us choose the mechanism of inhibition with the highest correlation factors (coefficient of determination (R^2) and Akaike information coefficient (AIC)) and the lowest Sy,x value. The numerical results are summarized in Table 1, while the corresponding Lineweaver–Burk and Michaelis–Menten kinetic plots are available in the Supplementary Materials.
(Michaelis-Menten) and 1/v0 vs. […] (Lainweaver-Burke) relationships. For this purpose, five solutions with different concentrations of the inhibitor and five solutions with different concentrations of L-carnitine were prepared. […] The time for reading the results is every six seconds for three minutes after the start of the reaction, which corresponds to the end of the linear interval. The initial velocity v0 was determined using the method proposed by Baici, by calculating the cut-off of the v vs. t (time) dependence for the linear interval of each of the reactions. Graphical dependencies are provided in the Supplementary Materials (Figures S1–S3).
Figure S2. Graphs representing the dependence of the initial velocity (v 0) on the concentration of the substrate [S], according to the model of Michaelis -Menten – left, and Lineweaver-Burk – right, for reversible a) mixed, b) non-competitive, c) uncompetitive and d) competitive inhibition. The concentration of the inhibitor - compound cis-8 are 0 μM, 25.6 μM, 51.2 μM and 68.3 μM, concentration of L-carnitine are 94 μM, 180 μM, 370 μM, 750 μM and 1500 μM.
Figure S3. Graphs representing the dependence of the initial velocity (v 0) on the concentration of […]
for reversible a) mixed, b) uncompetitive, c) non-competitive and d) competitive inhibition. The concentration of the inhibitor - compound trans-8 are 0 μM, 26.0 μM, 52.0 and 69.4 μM,

[3] abbreviates: fit to competitive inhibition model.
Setting [4] is: fit to non-competitive inhibition model.
The mark [5] stands for this setting: fit to uncompetitive inhibition model.

Regarding `CCCC1OC(=O)c2ccccc2C1C(=O)O` (mixture of isomers) [M2-1, Cis- and Trans-(±)-3-Propyl-3,4-Dihydro-1-Oxo-1H-Isochromene-4-Carboxylic Acids], the “CAT inhibition (%)” value in assay [1] (inhibitor 100 μM) is listed as 1%; in assay [1] (inhibitor 250 μM), 3%; in assay [1] (inhibitor 1000 μM), 7%.

For the molecule `CCCCCCCC1OC(=O)c2ccccc2C1C(=O)O` (racemic) [cis-2, Cis- and Trans-(±)-3-Heptyl-3,4-Dihydro-1-Oxo-1H-Isochromene-4-Carboxylic Acids], in assay [1], the inhibition at 100 µM was determined as 3%, the inhibition at 250 µM stood at 10% and the inhibition at 1000 µM is 16%.

In the case of `CCCCCCCCCC1OC(=O)c2ccccc2C1C(=O)O` (racemic) [cis-3, Cis- and Trans-(±)-3,4-Dihydro-3-Nonyl-1-Oxo-1H-Isochromene-4-Carboxylic Acids], in assay [1], the inhibition at 100 µM was 9%, the inhibition at 250 µM is 28% and the inhibition at 1000 µM was determined as 97%.

For the molecule `CCCCCCCCCCC1OC(=O)c2ccccc2C1C(=O)O` (racemic) [cis-4, Cis- and Trans-(±)-3-Decyl-3,4-Dihydro-1-Oxo-1H-Isochromene-4-Carboxylic Acids], the “CAT inhibition (%)” value in assay [1] (inhibitor 100 μM, 100 µM) amounted to 31%. Moreover, in assay [1], the inhibition at 250 µM turned out to be 96% and the inhibition at 1000 µM was found to be 97%.

As to `CCCCCCCC1OC(=O)c2cc(OC)c(OC)cc2C1C(=O)O` (racemic) [cis-6, Cis- and Trans-(±)-3-Heptyl-3,4-Dihydro-6,7-Dimethoxy-1-Oxo-1H-Isochromene-4-Carboxylic Acids], the inhibition at 1000 µM in assay [1] is 27%.

Turning to `CCCCCCCCCC1OC(=O)c2cc(OC)c(OC)cc2C1C(=O)O` (racemic) [cis-7, Cis- and Trans-(±)-3,4-Dihydro-6,7-Dimethoxy-3-Nonyl-1-Oxo-1H-Isochromene-4-Carboxylic Acids], in assay [1], the inhibition at 100 µM turned out to be 8%, the inhibition at 250 µM was found to be 43% and the inhibition at 1000 µM was 85%.

With `COc1cc2c(cc1OC)C(C(=O)O)C(c1cccc(OC)c1OC)OC2=O` (racemic) [cis-10, Cis- and Trans-(±)-3,4-Dihydro-3-(2,3-Dimethoxyphenyl)-6,7-Dimethoxy-1-Oxo-1H-Isochromene-4-Carboxylic Acids], in assay [1], the inhibition at 100 µM came out at 1%, the inhibition at 250 µM was found to be 2% and the inhibition at 1000 µM is 12%.

In the case of `CCCCCCCC1OC(=O)c2ccccc2C1C(=O)O` (racemic) [trans-2, Cis- and Trans-(±)-3-Heptyl-3,4-Dihydro-1-Oxo-1H-Isochromene-4-Carboxylic Acids], the “CAT inhibition (%)” value in assay [1] (inhibitor 100 μM, 100 µM) amounted to 4%; in assay [1] (inhibitor 250 μM, 250 µM) it was 6%; in assay [1] (inhibitor 1000 μM, 1000 µM), 25%.

For the molecule `CCCCCCCCCC1OC(=O)c2ccccc2C1C(=O)O` (racemic) [trans-3, Cis- and Trans-(±)-3,4-Dihydro-3-Nonyl-1-Oxo-1H-Isochromene-4-Carboxylic Acids], the “CAT inhibition (%)” value stood at 17% in assay [1] (inhibitor 100 μM, 100 µM); 40% in assay [1] (inhibitor 250 μM, 250 µM); 91% in assay [1] (inhibitor 1000 μM, 1000 µM).

As for `CCCCCCCCCCC1OC(=O)c2ccccc2C1C(=O)O` (racemic) [trans-4, Cis- and Trans-(±)-3-Decyl-3,4-Dihydro-1-Oxo-1H-Isochromene-4-Carboxylic Acids], the “CAT inhibition (%)” value is recorded as 54% in assay [1] (inhibitor 100 μM, 100 µM); 79% in assay [1] (inhibitor 250 μM, 250 µM); 97% in assay [1] (inhibitor 1000 μM).

As for `CCCCCCCCCCC1OC(=O)c2cc(OC)c(OC)cc2C1C(=O)O` (racemic) [trans-8, Cis- and Trans-(±)-3-Decyl-3,4-Dihydro-6,7-Dimethoxy-1-Oxo-1H-Isochromene-4-Carboxylic Acids], the AIC in assay [2] (setting [3]) is reported as −1490.723; in assay [2] (fit to mixed inhibition model) it was −1548.364; in assay [2] (setting [4]), −1542.332; in assay [2] (setting [5]) it was −1548.795. The “Sy,x” value in assay [2] (setting [3]) was 7.493 × 10^−9; in assay [2] (fit to mixed inhibition model), 3.576 × 10^−9; in assay [2] (setting [4]), 3.931 × 10^−9; in assay [2] (setting [5]) it was 3.626 × 10^−9. Besides, the α in assay [2] (mixed inhibition model) is on record as 0.21; in assay [2] (non-competitive inhibition model), 1. For the same molecule, the affinity in assay [2] (mixed-type inhibition model, L-carnitine varied), expressed as Ki, was 377 µM. Further, the results for the “Type / mechanism of inhibition” value in assay [2] and in assay [2] (listed as trans-3-decyl-6,7-dimethoxy-3,4-dihydroisocoumarin-4-carboxylic acid) were “mixed-type inhibitors” and “mixed inhibition”, respectively.

In the case of `COc1cc2c(cc1OC)C(C(=O)O)C(c1ccccc1)OC2=O` (racemic) [trans-9, Cis- and Trans-(±)-3,4-Dihydro-6,7-Dimethoxy-1-Oxo-3-Phenyl-1H-Isochromene-4-Carboxylic Acids], the inhibition at 100 µM in assay [1] worked out at 1%.

As for `COc1ccc(OC)c(C2OC(=O)c3cc(OC)c(OC)cc3C2C(=O)O)c1` (stereo not drawn) [cis-11, Cis- and Trans-(±)-3,4-Dihydro-3-(2,5-Dimethoxyphenyl)-6,7-Dimethoxy-1-Oxo-1H-Isochromene-4-Carboxylic Acids], in assay [1], the inhibition at 100 µM was 1%, the inhibition at 250 µM was 6% and the inhibition at 1000 µM turned out to be 22%.
